Experimental data reported in patent US20260224533A1, “CRYSTALLINE NANOPARTICLES COMPRISING ENZALUTAMIDE” (HELM PHARMACEUTICALS GMBH, priority 2023, published 2026).
≈ marks a conversion by molar mass, not a printed value.

Experiments:
[1] = cited from earlier work
[2] = Kinetic solubility of Enzalutamide in simulated fluids; format: physicochemical; conditions: kinetic from dmso stock, 37° C.
From the text: Preferably, the content of the amorphous nanosized Enzalutamide in the slurry or suspension is at least 10 times higher, more preferably at least 50 times, still more preferably at least 100 times higher, even more preferably at least 500 times higher than its solubility in the liquid, preferably aqueous solution, comprising the one or more polymers and/or copolymers to form the suspension or the slurry. Accordingly, the amount of Enzalutamide amorphous nanoparticles provided in step (a) that is needed depends on its solubility. The solubility can be measured by any method known in the art. […] A decent slurry can thus be produced when the slurry or suspension comprises e.g. 5 mg of the amorphous nanoparticles provided in step (a) in 1 mL of the slurry or suspension.

For `CNC(=O)c1ccc(N2C(=S)N(c3ccc(C#N)c(C(F)(F)F)c3)C(=O)C2(C)C)cc1F` [Enzalutamide], the solubility in water [1] is listed as “insoluble”, the solubility kinetic ([2]; Fasted State Simulated Intestinal Fluid (FaSSIF)) is listed as about 74 µg/mL (≈ 159 µM) and the solubility kinetic ([2]; Simulated Gastric Fluid (SGF)) is listed as about 50 µg/mL (≈ 108 µM).
